Series [1] concerns animal models of Alzheimer's disease. The note with it: background statement, literature; cited from earlier work.
Series [2] in a line: Effect of micronization, pressing and grinding (XRD). Format: physicochemical. As to conditions: pressing 1 minute at 100 metric tons. How it is done: The effects of micronization, pressing (1 minute at 100 metric tons) and grinding were determined by XRD and the following results were obtained: […]
Series [3] in a line: Water content (Karl Fischer) and loss on drying (TGA) of the form as obtained. Format: physicochemical. As to conditions: for Water content: by weight. The procedure:
(§1) TGA analysis was performed using a Mettler M3 meter. The weight of the samples was about 10 mg. The samples were scanned at a rate of 10° C./min from 25° C. to 200° C. The oven was constantly purged with nitrogen gas at a flow rate of 40 ml/min. Standard 70 μl alumina crucibles covered by lids with 1 hole were used.
(§2) The water content of ladostigil tartrate was measured by methods known in the art, such Karl Fischer analysis.

The nature of another series: Effect of freezing (XRD). Format: physicochemical. As to conditions: freezer at about −25° C. for 3 months. How it is done: The effects of freezing was determined by XRD and the following results were obtained:
Form A1 was kept in a freezer at about −25° C. for 3 months. Form A1 transformed to Form A in freezer.

Series [4] can be described thus: Hygroscopicity study: exposure to 0-100% relative humidity at room temperature (Karl Fischer, TGA, crystal form by XRD). Format: physicochemical. Details: TGA: unit not given here. As to conditions: for Water content by Karl Fisher: 1 week (7 days).
Description: Form E was placed for 1 week under 0-100% relative humidity at room temperature. Table 1 summarizes the results:
Form F was placed for 14 days under 0-100% relative humidity at room temperature. Table 2 summarizes the results:
Form H was placed for 14 days under 0-100% relative humidity at room temperature. Table 3 summarizes the results:
Form J1 was placed for 9 days under 0-100% relative humidity at room temperature. Table 4 summarizes the results:
Table 5 summarizes the results:
X-Ray powder diffraction data were obtained by method known in the art using a SCINTAG powder X-Ray diffractometer model X'TRA equipped with a solid state detector. Copper radiation of 1.5418 Å was used. A round aluminum sample holder with round zero background quartz plate, with a cavity of 25(diameter)*0.5(depth) mm was used.
as §1, §2
Crystal form was determined after equilibration of ladostigil tartrate form A for 10 days at various relative humidities at room temperature.
Form A1 was exposed at various humidity conditions at room temperature for 13 days.
Ladostigil tartrate form A1 was exposed to various humidity conditions at room temperature for 14 days. TGA was performed, and the crystal form was analyzed.
A mixture of ladostigil tartrate form A1 and E, containing primarily form A1, was exposed at various humidity conditions at room temperature for 14 days.
Form E was placed for 7 days under 0-100% relative humidity at room temperature. Table 12 summarizes the results:
Form F was placed for 14 days under 0-100% relative humidity at room temperature. Table 14 summarizes the results:
Ladostigil tartrate Form H was exposed for 14 days under 0-100% relative humidity at room temperature. Table 15 summarizes the results:
Crystal ladostigil tartrate Form J1 was placed for 9 days under 0-100% relative humidity at room temperature.

Series [5] in a line: Transformation of crystal form upon standing. It counts as physicochemical. The note with it: upon standing (a few hours). How it is done:
The wet material was determined to be polymorph C. Some of the samples contained polymorph C with low crystallinity. The wet material was dried at 55° C. under vacuum for 17 hours, giving polymorph E. The wet polymorph with low crystallinity was transformed to polymorph E with low crystallinity upon drying under the same conditions. Both polymorph E and polymorph E with low crystallinity were transformed to form A upon standing.
The wet material was dried at 80° C. under vacuum for 17 hours and polymorph E was formed.

The mark [6] stands for this setting: 100% RH, 13 days, room temperature.
[7] abbreviates: 100% RH, 14 days, room temperature.

Turning to `C#CCN[C@@H]1CCc2ccc(OC(=O)N(C)CC)cc21` [Ladostigil, Ethyl-methyl-carbamic acid (R)-3-prop-2-ynylamino-indan-5-yl ester], the “Efficacy in animal models of Alzheimer's disease” value in series [1] was “effective”.

Consider “carbamic acid, ethylmethyl-, (3R)-2,3-dihydro-3-(2-propynylamino)-1H-inden-5-yl ester, (2R,3R)-2,3-dihydroxybutanedioate (2:1) [Form A1, reference compound]”, for which the Crystallinity after pressing entry in series [2] was “lose some extent of crystallinity”. Moreover, the “Weight loss / loss on drying by TGA” value in series [3] was 0.3%. Besides, the Water content entry in series [3] was “about 0.3%”. In addition, the “Crystal form after freezing” value in the series “Effect of freezing (XRD)” is reported as “Form A”. Moreover, the “KF (Karl Fischer analysis)” value in series [4] (0% RH, 13 days, room temperature) was 0.3%; in series [4] (20% RH, 13 days, room temperature) it was 0.3%; in series [4] (40% RH, 13 days, room temperature), 0.3%; in series [4] (60% RH, 13 days, room temperature), 0.3%; in series [4] (80% RH, 13 days, room temperature) it was 0.3%; in series [4] (setting [6]), 0.5%. Also, the TGA stood at 0.2 in series [4] (60% RH, 14 days, room temperature); 0.1 in series [4] (80% RH, 14 days, room temperature); 0.1 in series [4] (setting [7]). The Resulting form entry in series [4] (setting [6]) was “partially transforms to form A”. For the same molecule, the “Crystal Form (resulting form)” value in series [4] (setting [7]) is “mixture of Form A and A1”. In series [4] (conclusion in words), the Hygroscopicity result was “neither Form A nor Form A1 is hygroscopic”. In series [4] (high relative humidity, in words), the “Crystal form upon exposure to high relative humidity” value is given as “transforms to form A”.

With “carbamic acid, ethylmethyl-, (3R)-2,3-dihydro-3-(2-propynylamino)-1H-inden-5-yl ester, (2R,3R)-2,3-dihydroxybutanedioate (2:1) [Form E]”, the “Crystal form after standing” value in series [5] (listed as Polymorph E) is “mixture of polymorphs A and A1”; in series [5] (listed as polymorph E), “form A”. Further, in series [3], the “Weight loss / loss on drying by TGA” value is listed as 0.7-2%. The Water content in series [3] was 0.7-2%. In addition, the “Water content by Karl Fisher” value was 0.7% in series [4] (0% RH, room temperature); 0.7% in series [4] (20% RH, room temperature); 1.5% in series [4] (40% RH, room temperature); 1.8% in series [4] (60% RH, room temperature); 0.5% in series [4] (80% RH, room temperature); 0.5% in series [4] (100% RH, room temperature). Further, the “Relative humidity range in which the form is stable” value in series [4] (1 week, room temperature) was 0-60 % RH.

Source of the values: patent US20090275653A1, “POLYMORPHIC FORMS OF LADOSTIGIL TARTRATE” (priority 2005, published 2009).
